By melting point is commonly meant the temperature, or range, at which the solid turns liquid. As for `CCOC(=O)CC(=O)c1cn(C(c2ccccc2)(c2ccccc2)c2ccccc2)cn1`, the melting point is 136 to 139 °C. The result for `O=S(=O)(CCCCCOc1ccc(C2=C(c3ccc(O)cc3)CCCc3cc(O)ccc32)cc1)CCCC(F)(F)C(F)(F)F` reads 168 to 170 °C; that for `O=C(O)c1c[nH]c(Cl)c1`, 175 to 178 °C; that for `CSC1=C(c2ccc(O)cc2)C(=O)c2cc(O)cc(O)c21`, 120 to 123 °C.

In the case of `O=C1Nc2cc(Cl)ccc2Sc2cscc21`, the melting point lay in the range of 267 to 269 °C. The result for `COC(=O)c1cccc(S(=O)(=O)Cc2c(O)ccc3c2CCCC3=O)c1` reads 230 to 232 °C; that for `COc1ccc(-c2cc(-c3ccc(-c4c(Cc5ccccc5)sc5ccccc45)cc3)cc(Br)c2OCC(=O)O)cc1OC`, 103 to 105 °C; that for `CN1Cc2c(-c3noc(CN4CC=CC4)n3)ncn2-c2ccccc2C1=O`, 215 to 220 °C. The result for `CN1C(=O)Cc2cc(CBr)cnc21` reads 65 °C. The result for `Cc1cc(C)nc(NC(=O)Cc2c(Cl)sc3ccccc23)c1` reads 123 to 124 °C; that for `CS(=O)(=O)N1CCCn2c(nc3c(N)nc4c(c32)CCCC4)C1`, 270 to 272 °C. In the case of `COc1ccc(Cc2cc3cccc(-c4cccc(C(=O)O)c4)c3o2)cc1OC`, the melting point lay within 122 to 123 °C.

Compound `Cc1cnc(C2=NC(C)(C(C)C)C(=O)N2)c(C(=O)C(=O)N(C)c2ccccc2)c1` (stereo not given) registered a melting point of 153 to 156 °C. The result for `Cc1c2c(nn1CCO)c(N)nc1ccccc12` reads 226 to 228 °C; that for `CC(C)=C(C[C@H](N)C(=O)O)C(=O)O`, 198 to 199 °C. `COc1ccc(C2SCCS2)cc1` yielded a melting point of 62 to 63 °C. In turn, `O=[N+]([O-])c1cc(CCl)ccc1Oc1ccc(OCc2ccccc2)cc1` had a melting point of 106 to 107 °C. The figure for `CN1CC(O)N(c2cc(C(C)(C)C)on2)C1=O` (stereo not given) is 173 to 177 °C. The result for `CN(C)c1ccc(-c2cncc(OC3SCC(O)C(O)C3O)c2)cc1` (stereo not given) reads 240 °C; that for `CNC(=O)c1ccc(N2CCN(Cc3cnc4c(c3)[nH]c(=O)n3cccc43)CC2)cc1`, 286 to 289 °C; that for `CC1(C)CC(O)CC(C)(C)N1OCc1ccccc1`, 86 to 87 °C. The figure for `CC(C)(C)OC(=O)N1CCn2c(Br)c(-c3cccc(F)c3)c(C(N)=O)c2C1` is 168 to 174 °C. For `COc1ccccc1-n1c(=O)[nH]c2c(C(N)=O)nc(-c3ccc(O)cc3)nc21`, the melting point fell in the range of 362 to 363 °C. The result for `Cc1nc2c(s1)CCCC2=O` reads 86 to 87 °C. The figure for `Oc1ccc(-c2nc(Cn3ccnn3)cs2)cc1` is 164 to 166 °C. The result for `CC(C)n1cc(-c2ccc(Oc3ccccc3)cc2)c2c(N)ncnc21` reads 155 to 156 °C; that for `CC(C)C[C@H](N[C@H](CC(C)C)C(=O)OCc1ccccc1)C(=O)N[C@@H](Cc1ccccc1)C(N)=O`, 145 to 146 °C; that for `COC(=O)/C=C(C)/C=C/C1(c2cc3c(cc2C)C(C)(C)CCC3(C)C)CC=CS1` (stereo not given), 152 to 153 °C.

In turn, `COc1ccc2cc3c(cc2c1)C(=O)NC3=O` showed a melting point greater than 250 °C.

In turn, `C/C(=C\c1ccc(OCc2nc(-c3ccc(C(F)(F)F)cc3)oc2C)cc1)Cn1oc(=O)[nH]c1=O` gave a melting point of 90 to 91 °C. Compound `Cc1nc2c(N)nc3ccc(OCc4ccccc4)cc3c2n1CCCCNC(=O)c1ccccc1` displayed a melting point of 244 to 245 °C. Compound `CCC1C(C)=NN=C(c2ccc(OC)c(OC)c2)c2cc(OC)c(OCCCN(C)C)cc21` (stereo not given) registered a melting point of 126 to 128 °C.

`Cc1oc(-c2ccccc2)nc1CCOc1ccc(C[C@@H](C(=O)O)N2CCN(c3ccccc3)CC2)cc1Br` displayed a melting point of 220 to 222 °C.

In the case of `OC(CCCc1ccccc1)c1ccc(OCc2ccc3ccccc3n2)cc1` (stereo not given), the melting point lay within 118 to 119 °C. On to `CC(c1cccnn1)C(O)(Cn1cncn1)c1ccc(F)cc1F` (stereo not given), for which the melting point fell in the range of 134 to 135 °C.

(Values after a melting point compilation (Tetko et al.; mined from patent text by program, amines drawn as free bases though some values may be those of a salt).)
